Results from US20120231482A1, “METHOD, KIT OR DIAGNOSTIC FOR THE DETECTION OF REAGENTS WHICH INDUCE ALTERED CONTRACTILITY” (THE JOHNS HOPKINS UNIVERSITY, priority 2009, published 2012).

Legend:
Assay in all cases: Modified biotin switch assay, sites of HNO modification
[1] = target: T1, myosin heavy chain α (Rattus norvegicus, UniProt P02563); format: biochemical; details: for number of independent observations of peptide: Cys 37, 25 μM NCA or 500 μM AS; for Position of modified Cys: myosin heavy chain (α), Table 2
T1 construct: Rat myofibrillar preparations, as described in [7], were obtained from frozen ventricles (Pel Freez Biologicals); tissue Pel Freez Biologicals; host or cells: myofibrils from frozen rat ventricles
Experimental: (§1) Rat myofibrillar preparations, as described in [7], were obtained from frozen ventricles (Pel Freez Biologicals) minced in 20 volumes/tissue weight of 4° C. relax buffer (SRB (75 mM KCL, 10 mM imidazole pH 7.2, 2 mM MgCl2) plus 4 mM phosphocreatine, 1 mM ATP, 50 mM BDM, 1 mM benzamidine-HCL, 0.1 mM PMSF, 1 μg/ml leupeptin, 1 μg/ml pepstatin, 1% (v/v) Trixon X-100) and adjusted to 10 mM EDTA. Minced preparations were centrifuged for 8 min at 3000xg and the supernant was decanted. Resulting pellets were resuspended in 10 volumes of SRB plus 1% Triton X-100 and subjected to 6 strokes in a Duall tissue homogenizer and centrifuged as above. Pellets were gently resuspended and centrifuged as above twice more in SRB including 1% (v/v) Triton X-100, twice in SRB lacking Triton X-100 and once in K-60 buffer (60 mM KCL, 20 mM MOPS, 2 mM MgCl2 pH 7) before being resuspended in 5 volumes of K-60.
(§2) Detection of HNO modifications by Modified Biotin Switch. HNO modified thiols were detected using a modification to the standard biotin switch protocol. In brief, 100 μg of rat myofibrils/treatment were diluted to 0.5 μg/μl in HEN (250 mM HEPES pH 7.7, 1 mM EDTA and 0.1 mM neocuproine) including 0.1% (w/v) SDS and exposed to a treatment for 10 min at 37° C. which was subsequently removed by acetone precipitation. Remaining free thiols were blocked by addition of 300 μl of HEN including 2.5% (w/v) SDS and 20 mM N-ethylmaleimide (NEM), incubated for 20 min at 50° C. Excess NEM was removed by acetone precipitation. HNO and/or NO modified thiols were reduced using 5 mM DTT or 1 mM ascorbate in 150 μl of HEN including 1% (w/v) SDS and biotinylated with 0.8 mM Biotin-HPDP (Pierce) for one hour at room temperature. Excess biotin-HPDP was removed by acetone precipitation (2 volumes) and resultant pellets were carefully washed with an additional volume of acetone. Biotinylated proteins were resuspended in 1 ml of HEN including 0.1% (w/v) SDS and captured by incubation with 15 μl of washed, packed Ultralink Immobilized Streptavidin (Pierce) for one hour at room temperature. Beads were washed four times in 50 bead volumes of HEN (twice including 0.1% (w/v) SDS, twice including 600 mM NaCl) and twice with EB (20 mM HEPES pH 7.7, 100 mM NaCl, 1 mM EDTA). Captured proteins were eluted with 40 μl of EB containing 100 mM DTT, mixed with 15 μl of 4×LDS sample buffer, boiled, separated by SDS PAGE and silver stained. For MS studies, biotinylated proteins were digested overnight with trypsin (Promega) prior to capture and washed ten additional times with 5 mM ammonium bicarbonate/20% acetonitrile before being eluted in 100 μl of wash buffer including 100 mM DTT as described. Captured peptides were identified using a LTQ linear ion trap tandem mass spectrometer (ThermoFinnigan, Waltham Mass. USA) with data searched against the rat IPI primary sequence database using the sorcerer searching platform (sagen).
(§3) To investigate the modifications that underlie the difference seen in the functional effect of these two compounds we performed an analysis on the myofilament proteins, using a modified biotin-switch method, followed by mass spectrometry for identification (FIG. 3). Following treatment with HNO or control compounds, unmodified cysteines are blocked with NEM before treatment with a reducing agent and labeling the exposed cysteines with a biotin group (FIG. 3A). In this case, 5 mM DTT was used as the reducing agent because it was shown in the physiological studies to reverse the effect of the treatment. […] Tryptic or chymotryptic peptides containing the modified cysteine residues were captured and identified by LC/MS/MS. […] To parse the role of candidate sites of modification between these two effects a comparative proteomics experiment was designed where modifications specific to NCA treatment would be considered candidates for the Ca^2+ effect while sites identified in common between AS and NCA could be candidates for the force effect (FIG. 3C). […]

[2] = target: T2, myosin light chain 1 (Rattus norvegicus, UniProt P16409); format: biochemical; details: for number of independent observations of peptide: Cys 81, tryptic peptide ITYGQCGDVLR, 25 μM NCA or 500 μM AS; for Position of modified Cys: myosin light chain 1, Table 2
T2 construct: Rat myofibrillar preparations, as described in [7], were obtained from frozen ventricles (Pel Freez Biologicals); tissue Pel Freez Biologicals; host or cells: myofibrils from frozen rat ventricles
Experimental: as §1, §2, §3

[3] = target: T3, myson binding protein C (Rattus norvegicus, UniProt P56741); format: biochemical; details: for number of independent observations of peptide: Cys 475, 25 μM NCA or 500 μM AS; for Position of modified Cys: myosin binding protein C, Table 2
T3 construct: Rat myofibrillar preparations, as described in [7], were obtained from frozen ventricles (Pel Freez Biologicals); tissue Pel Freez Biologicals; host or cells: myofibrils from frozen rat ventricles
Experimental: as §1, §2, §3

[4] = target: T4, troponin C (cardiac) (Rattus norvegicus, UniProt Q4PP99); format: biochemical; details: for number of independent observations of peptide: Cys 35, tryptic peptide AAFDIFVLGAEDGCISTK, 25 μM NCA or 500 μM AS; for Position of modified Cys: troponin C, Table 2
T4 construct: Rat myofibrillar preparations, as described in [7], were obtained from frozen ventricles (Pel Freez Biologicals); tissue Pel Freez Biologicals; host or cells: myofibrils from frozen rat ventricles
Experimental: as §1, §2, §3

[5] = target: T5, α actin (Rattus norvegicus, UniProt P68035); format: biochemical; details: 25 μM NCA or 500 μM AS
T5 construct: Rat myofibrillar preparations, as described in [7], were obtained from frozen ventricles (Pel Freez Biologicals); tissue Pel Freez Biologicals; host or cells: myofibrils from frozen rat ventricles
Experimental: as §1, §2, §3

[6] = system: myosin heavy chain α/β; format: biochemical, rat; details: for number of independent observations of peptide: 25 μM NCA or 500 μM AS; for Position of modified Cys: myosin heavy chain (α/β), Table 2
Experimental: as §1, §2, §3

[7] = system: α actinin; format: biochemical, rat; details: for number of independent observations of peptide: Cys 889, tryptic peptide ELPPDQAQYCIKR, 25 μM NCA or 500 μM AS; for Position of modified Cys: α-Actinin, Table 2
Experimental: as §1, §2, §3

[8] = Cys 12, tryptic peptide DDEETTALVCDNGSLVK
[9] = Cys 219, tryptic peptide LCYVALDFENEMATAASSSLEK

T1 sequence (P02563 whole entry): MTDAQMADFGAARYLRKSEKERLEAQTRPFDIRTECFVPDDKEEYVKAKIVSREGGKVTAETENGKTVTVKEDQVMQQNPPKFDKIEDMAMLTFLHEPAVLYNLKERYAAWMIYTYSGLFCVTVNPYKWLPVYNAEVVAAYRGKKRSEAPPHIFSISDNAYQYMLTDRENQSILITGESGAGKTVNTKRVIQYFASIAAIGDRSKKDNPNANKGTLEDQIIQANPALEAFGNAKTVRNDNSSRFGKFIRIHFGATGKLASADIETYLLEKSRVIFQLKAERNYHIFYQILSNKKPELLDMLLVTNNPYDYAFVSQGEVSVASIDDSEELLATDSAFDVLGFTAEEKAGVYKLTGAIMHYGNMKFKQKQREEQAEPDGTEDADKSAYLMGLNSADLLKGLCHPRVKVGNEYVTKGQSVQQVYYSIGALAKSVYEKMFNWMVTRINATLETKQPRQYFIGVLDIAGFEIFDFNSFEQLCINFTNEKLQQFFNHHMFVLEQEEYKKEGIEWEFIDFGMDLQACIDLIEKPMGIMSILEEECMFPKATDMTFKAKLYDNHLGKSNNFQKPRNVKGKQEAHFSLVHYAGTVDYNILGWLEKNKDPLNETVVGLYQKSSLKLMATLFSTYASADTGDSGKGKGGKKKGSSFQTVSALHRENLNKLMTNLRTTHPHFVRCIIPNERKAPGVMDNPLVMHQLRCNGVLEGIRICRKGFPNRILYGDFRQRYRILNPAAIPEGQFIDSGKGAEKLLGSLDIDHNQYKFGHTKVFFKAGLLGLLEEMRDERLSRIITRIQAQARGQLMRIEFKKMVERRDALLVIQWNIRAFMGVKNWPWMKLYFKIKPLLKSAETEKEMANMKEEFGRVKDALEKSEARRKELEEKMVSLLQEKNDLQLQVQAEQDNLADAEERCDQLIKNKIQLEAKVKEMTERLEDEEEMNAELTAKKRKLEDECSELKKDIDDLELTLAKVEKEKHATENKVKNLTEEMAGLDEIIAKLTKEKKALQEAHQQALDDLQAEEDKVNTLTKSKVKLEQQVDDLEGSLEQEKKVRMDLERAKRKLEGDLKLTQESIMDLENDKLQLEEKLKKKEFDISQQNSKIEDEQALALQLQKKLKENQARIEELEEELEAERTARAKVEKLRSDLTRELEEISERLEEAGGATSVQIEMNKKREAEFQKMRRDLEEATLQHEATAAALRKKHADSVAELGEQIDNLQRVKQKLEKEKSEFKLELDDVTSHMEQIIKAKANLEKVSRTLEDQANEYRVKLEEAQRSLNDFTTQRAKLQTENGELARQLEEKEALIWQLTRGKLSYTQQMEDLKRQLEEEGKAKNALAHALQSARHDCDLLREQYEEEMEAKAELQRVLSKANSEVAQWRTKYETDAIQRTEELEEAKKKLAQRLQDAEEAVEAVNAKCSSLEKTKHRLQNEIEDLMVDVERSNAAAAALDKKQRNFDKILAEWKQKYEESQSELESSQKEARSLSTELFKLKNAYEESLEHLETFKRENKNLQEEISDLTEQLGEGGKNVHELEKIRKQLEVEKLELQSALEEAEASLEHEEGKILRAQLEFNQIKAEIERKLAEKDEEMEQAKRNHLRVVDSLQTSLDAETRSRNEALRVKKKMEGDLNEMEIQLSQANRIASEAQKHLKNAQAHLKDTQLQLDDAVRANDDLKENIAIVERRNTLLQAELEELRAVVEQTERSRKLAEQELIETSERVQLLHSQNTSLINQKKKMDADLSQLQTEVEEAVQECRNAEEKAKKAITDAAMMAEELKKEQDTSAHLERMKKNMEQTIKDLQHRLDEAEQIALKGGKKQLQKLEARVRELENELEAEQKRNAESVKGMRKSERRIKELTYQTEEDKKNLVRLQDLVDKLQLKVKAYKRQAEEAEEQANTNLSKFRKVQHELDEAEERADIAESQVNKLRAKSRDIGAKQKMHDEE
T3 sequence (P56741 whole entry): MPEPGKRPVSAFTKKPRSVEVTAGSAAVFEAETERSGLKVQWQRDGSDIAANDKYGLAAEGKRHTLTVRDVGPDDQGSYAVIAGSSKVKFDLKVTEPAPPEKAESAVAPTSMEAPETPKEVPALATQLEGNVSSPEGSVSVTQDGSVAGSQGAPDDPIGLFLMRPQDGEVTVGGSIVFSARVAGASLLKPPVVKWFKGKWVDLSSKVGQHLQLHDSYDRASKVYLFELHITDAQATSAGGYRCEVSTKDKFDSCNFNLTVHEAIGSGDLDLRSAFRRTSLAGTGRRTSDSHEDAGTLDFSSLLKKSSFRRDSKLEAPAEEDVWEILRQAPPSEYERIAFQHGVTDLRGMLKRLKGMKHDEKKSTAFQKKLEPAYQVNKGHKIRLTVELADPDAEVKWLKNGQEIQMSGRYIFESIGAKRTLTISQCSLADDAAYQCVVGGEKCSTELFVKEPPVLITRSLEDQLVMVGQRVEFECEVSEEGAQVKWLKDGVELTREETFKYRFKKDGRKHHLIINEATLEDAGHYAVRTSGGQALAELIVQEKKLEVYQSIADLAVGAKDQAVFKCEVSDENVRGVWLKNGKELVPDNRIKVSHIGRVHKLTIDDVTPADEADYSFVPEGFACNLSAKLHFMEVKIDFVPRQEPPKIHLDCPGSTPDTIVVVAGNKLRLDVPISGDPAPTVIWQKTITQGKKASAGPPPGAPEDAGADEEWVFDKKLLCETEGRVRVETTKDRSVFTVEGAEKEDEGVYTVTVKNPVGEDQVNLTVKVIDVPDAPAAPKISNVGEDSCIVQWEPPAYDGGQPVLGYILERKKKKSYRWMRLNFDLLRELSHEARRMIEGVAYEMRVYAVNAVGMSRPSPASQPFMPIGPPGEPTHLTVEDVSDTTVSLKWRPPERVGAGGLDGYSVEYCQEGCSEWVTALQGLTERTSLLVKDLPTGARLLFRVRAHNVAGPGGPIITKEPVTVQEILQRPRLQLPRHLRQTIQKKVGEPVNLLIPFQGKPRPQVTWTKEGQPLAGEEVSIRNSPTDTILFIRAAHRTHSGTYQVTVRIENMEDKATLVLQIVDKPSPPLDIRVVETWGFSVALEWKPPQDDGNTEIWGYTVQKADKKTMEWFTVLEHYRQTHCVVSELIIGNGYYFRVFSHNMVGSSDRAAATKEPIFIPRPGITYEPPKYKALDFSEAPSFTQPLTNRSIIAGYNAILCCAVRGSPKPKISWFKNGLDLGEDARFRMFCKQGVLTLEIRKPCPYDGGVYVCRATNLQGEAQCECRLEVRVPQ
T2 sequence (P16409 whole entry): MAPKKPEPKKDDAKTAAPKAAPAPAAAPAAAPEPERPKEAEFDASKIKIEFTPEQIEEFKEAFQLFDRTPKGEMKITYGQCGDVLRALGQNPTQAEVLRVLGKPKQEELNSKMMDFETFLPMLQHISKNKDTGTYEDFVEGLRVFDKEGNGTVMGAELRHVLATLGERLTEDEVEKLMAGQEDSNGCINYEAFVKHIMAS

SMILES | number of independent observations of peptide ([1]; tryptic peptide TECFVPDDKEEYVK) | Position of modified Cys [1] | number of independent observations of peptide [2] | Position of modified Cys [2] | number of independent observations of peptide ([3]; tryptic peptide VEFECEVSEEGAQVK) | Position of modified Cys [3] | number of independent observations of peptide [4] | Position of modified Cys [4] | number of independent observations of peptide [5, 8] | number of independent observations of peptide [5, 9] | number of independent observations of peptide ([5]; Cys 257, chymotryptic peptide RCPETLFQPSF) | number of independent observations of peptide ([6]; Cys 1750, tryptic peptide MDADLSQLQTEVEEAVQECR) | Position of modified Cys [6] | number of independent observations of peptide [7] | Position of modified Cys [7] | number of independent observations of peptide ([1]; chymotryptic peptide DIRTECFVPDDKEEY) | number of independent observations of peptide ([3]; chymotryptic peptide ECEVSEEGAQVKW) | number of independent observations of peptide ([5]; Cys 12, chymotryptic peptide VCDNGSLVKAGF) | number of independent observations of peptide ([6]; Cys 907, chymotryptic peptide ADAEERCDQL)
CC(=O)OC1(N=O)CCCCC1 [NCA, 1-nitrosocyclohexylacetate] | 3 | 37(α) | 2 | 81 | 1 | 475 | 2 | 35 | 3 | 1 | 1 | 2 | 1750(α/β) | 2 | 889 |  |  |  | 
[Na+].[Na+].[O-][N+]([O-])=NO [AS, Angeli's Salt] | 3 | 37(α) | 2 | 81 |  | 475 | 2 | 35 | 3 | 1 |  |  | 907(α/β) | 3 | 889 | 3 | 2 | 2 | 2
